According to patent US12077503B2, “Substituted cyclic amides and their use as herbicides” (FMC CORPORATION, priority 2015, dated 2024):

Key:
Test in all cases: Test C preemergence
Format in all cases: in vivo
[1] = tested on: johnsongrass (Sorghum halepense); details: for Plant response rating, Johnsongrass: scale 0 to 100, 0 no effect, 100 complete control
In short: (§1)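 Herbicidal effect, applied preemergence to sown seeds or postemergence to 1- to 4-leaf plants, was scored visually 13 to 15 d after application, 0 to 100 versus controls.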

[2] = tested on: pigweed (Amaranthus retroflexus); details: for Plant response rating, Pigweed: scale 0 to 100, 0 no effect, 100 complete control
In short: as §1

[3] = tested on: nutsedge, yellow (yellow nutsedge, Cyperus esculentus); details: for Plant response rating, Nutsedge, Yellow: scale 0 to 100, 0 no effect, 100 complete control
In short: as §1

[4] = tested on: ryegrass, Italian (Italian ryegrass, Lolium multiflorum); details: for Plant response rating, Ryegrass, Italian: scale 0 to 100, 0 no effect, 100 complete control
In short: as §1

[5] = tested on: Galium (catchweed bedstraw, Galium aparine); details: for Plant response rating, Galium: scale 0 to 100, 0 no effect, 100 complete control
In short: as §1

[6] = tested on: blackgrass (Alopecurus myosuroides); details: for Plant response rating, Blackgrass: scale 0 to 100, 0 no effect, 100 complete control
In short: as §1

[7] = tested on: waterhemp (common waterhemp, Amaranthus rudis); details: for Plant response rating, Waterhemp: scale 0 to 100, 0 no effect, 100 complete control
In short: as §1

[8] = tested on: oilseed rape (Brassica napus); details: for Plant response rating, Oilseed Rape: scale 0 to 100, 0 no effect, 100 complete control
In short: as §1

[9] = tested on: velvetleaf (Abutilon theophrasti); details: for Plant response rating, Velvetleaf: scale 0 to 100, 0 no effect, 100 complete control
In short: as §1

[10] = tested on: lambsquarters (Chenopodium album); details: for Plant response rating, Lambsquarters: scale 0 to 100, 0 no effect, 100 complete control
In short: as §1

[11] = tested on: crabgrass, large (large crabgrass, Digitaria sanguinalis); details: for Plant response rating, Crabgrass, Large: scale 0 to 100, 0 no effect, 100 complete control
In short: as §1

corn (Zea mays) = details: for Plant response rating, Corn: scale 0 to 100, 0 no effect, 100 complete control
In short: as §1

[12] = tested on: foxtail, giant (giant foxtail, Setaria faberii); details: for Plant response rating, Foxtail, Giant: scale 0 to 100, 0 no effect, 100 complete control
In short: as §1

[13] = tested on: morningglory (Ipomoea coccinea); details: for Plant response rating, Morningglory: scale 0 to 100, 0 no effect, 100 complete control
In short: as §1

[14] = tested on: barnyardgrass (Echinochloa crus-galli); details: for Plant response rating, Barnyardgrass: scale 0 to 100, 0 no effect, 100 complete control
In short: as §1

[15] = tested on: wheat (winter wheat, Triticum aestivum); details: for Plant response rating, Wheat: scale 0 to 100, 0 no effect, 100 complete control
In short: as §1

soybean (Glycine max) = details: for Plant response rating, Soybean: scale 0 to 100, 0 no effect, 100 complete control
In short: as §1

[16] = 31 g ai/ha, 0 is no effect, 100 is complete control

Structure (SMILES): O=C1NCC(c2ccc(I)cc2)C1C(=O)Nc1cccc(F)c1F (racemic) [Compound 700]
- Plant response rating (scale of 0 to 100), Johnsongrass [1, 16]: 100
- Plant response rating, Johnsongrass ([1]; 62 g ai/ha): 0
- Plant response rating, Johnsongrass ([1]; 125 g ai/ha): 10
- Plant response rating, Johnsongrass ([1]; 250 g ai/ha): 60
- Plant response rating (scale of 0 to 100), Pigweed [2, 16]: 0
- Plant response rating, Pigweed ([2]; 62 g ai/ha): 15
- Plant response rating, Pigweed ([2]; 125 g ai/ha): 50
- Plant response rating, Pigweed ([2]; 250 g ai/ha): 65
- Plant response rating (scale of 0 to 100), Nutsedge, Yellow [3, 16]: 0
- Plant response rating, Nutsedge, Yellow ([3]; 62 g ai/ha): 0
- Plant response rating, Nutsedge, Yellow ([3]; 125 g ai/ha): 0
- Plant response rating, Nutsedge, Yellow ([3]; 250 g ai/ha): 0
- Plant response rating (scale of 0 to 100), Ryegrass, Italian [4, 16]: 0
- Plant response rating, Ryegrass, Italian ([4]; 62 g ai/ha): 20
- Plant response rating, Ryegrass, Italian ([4]; 125 g ai/ha): 35
- Plant response rating, Ryegrass, Italian ([4]; 250 g ai/ha): 45
- Plant response rating (scale of 0 to 100), Galium [5, 16]: 0
- Plant response rating, Galium ([5]; 62 g ai/ha): 0
- Plant response rating, Galium ([5]; 125 g ai/ha): 50
- Plant response rating, Galium ([5]; 250 g ai/ha): 40
- Plant response rating (scale of 0 to 100), Blackgrass [6, 16]: 20
- Plant response rating, Blackgrass ([6]; 62 g ai/ha): 55
- Plant response rating, Blackgrass ([6]; 125 g ai/ha): 60
- Plant response rating, Blackgrass ([6]; 250 g ai/ha): 85
- Plant response rating (scale of 0 to 100), Waterhemp [7, 16]: 10
- Plant response rating, Waterhemp ([7]; 62 g ai/ha): 65
- Plant response rating, Waterhemp ([7]; 125 g ai/ha): 75
- Plant response rating, Waterhemp ([7]; 250 g ai/ha): 70
- Plant response rating (scale of 0 to 100), Oilseed Rape [8, 16]: 0
- Plant response rating, Oilseed Rape ([8]; 62 g ai/ha): 30
- Plant response rating, Oilseed Rape ([8]; 125 g ai/ha): 60
- Plant response rating, Oilseed Rape ([8]; 250 g ai/ha): 50
- Plant response rating (scale of 0 to 100), Velvetleaf [9, 16]: 0
- Plant response rating, Velvetleaf ([9]; 62 g ai/ha): 0
- Plant response rating, Velvetleaf ([9]; 125 g ai/ha): 20
- Plant response rating, Velvetleaf ([9]; 250 g ai/ha): 40
- Plant response rating (scale of 0 to 100), Lambsquarters [10, 16]: 0
- Plant response rating, Lambsquarters ([10]; 62 g ai/ha): 25
- Plant response rating, Lambsquarters ([10]; 125 g ai/ha): 80
- Plant response rating, Lambsquarters ([10]; 250 g ai/ha): 85
- Plant response rating (scale of 0 to 100), Crabgrass, Large [11, 16]: 95
- Plant response rating, Crabgrass, Large ([11]; 62 g ai/ha): 95
- Plant response rating, Crabgrass, Large ([11]; 125 g ai/ha): 95
- Plant response rating, Crabgrass, Large ([11]; 250 g ai/ha): 98
- Plant response rating (scale of 0 to 100), Corn (corn (Zea mays); [16]): 0
- Plant response rating, Corn (corn (Zea mays); 62 g ai/ha): 0
- Plant response rating, Corn (corn (Zea mays); 125 g ai/ha): 10
- Plant response rating, Corn (corn (Zea mays); 250 g ai/ha): 50
- Plant response rating (scale of 0 to 100), Foxtail, Giant [12, 16]: 80
- Plant response rating, Foxtail, Giant ([12]; 62 g ai/ha): 85
- Plant response rating, Foxtail, Giant ([12]; 125 g ai/ha): 90
- Plant response rating, Foxtail, Giant ([12]; 250 g ai/ha): 90
- Plant response rating (scale of 0 to 100), Morningglory [13, 16]: 0
- Plant response rating, Morningglory ([13]; 62 g ai/ha): 0
- Plant response rating, Morningglory ([13]; 125 g ai/ha): 0
- Plant response rating, Morningglory ([13]; 250 g ai/ha): 0
- Plant response rating (scale of 0 to 100), Barnyardgrass [14, 16]: 75
- Plant response rating, Barnyardgrass ([14]; 62 g ai/ha): 85
- Plant response rating, Barnyardgrass ([14]; 125 g ai/ha): 90
- Plant response rating, Barnyardgrass ([14]; 250 g ai/ha): 95
- Plant response rating (scale of 0 to 100), Wheat [15, 16]: 0
- Plant response rating, Wheat ([15]; 62 g ai/ha): 0
- Plant response rating, Wheat ([15]; 125 g ai/ha): 0
- Plant response rating, Wheat ([15]; 250 g ai/ha): 70
- Plant response rating (scale of 0 to 100), Soybean (soybean (Glycine max); [16]): 100
- Plant response rating, Soybean (soybean (Glycine max); 62 g ai/ha): 0
- Plant response rating, Soybean (soybean (Glycine max); 125 g ai/ha): 15
- Plant response rating, Soybean (soybean (Glycine max); 250 g ai/ha): 0

Structure (SMILES): O=C1NCC(c2cccc(OC(F)F)c2)C1C(=O)Nc1ccc(F)cc1F (centres unmarked) [Compound 421]
- Plant response rating, Johnsongrass ([1]; 31 g ai/ha): 0
- Plant response rating, Johnsongrass ([1]; 62 g ai/ha): 0
- Plant response rating, Johnsongrass ([1]; 125 g ai/ha): 0
- Plant response rating, Johnsongrass ([1]; 250 g ai/ha): 0
- Plant response rating, Pigweed ([2]; 31 g ai/ha): 0
- Plant response rating, Pigweed ([2]; 62 g ai/ha): 0
- Plant response rating, Pigweed ([2]; 125 g ai/ha): 35
- Plant response rating, Pigweed ([2]; 250 g ai/ha): 60
- Plant response rating, Nutsedge, Yellow ([3]; 31 g ai/ha): 0
- Plant response rating, Nutsedge, Yellow ([3]; 62 g ai/ha): 0
- Plant response rating, Nutsedge, Yellow ([3]; 125 g ai/ha): 0
- Plant response rating, Nutsedge, Yellow ([3]; 250 g ai/ha): 0
- Plant response rating, Ryegrass, Italian ([4]; 62 g ai/ha): 40
- Plant response rating, Ryegrass, Italian ([4]; 125 g ai/ha): 35
- Plant response rating, Ryegrass, Italian ([4]; 250 g ai/ha): 65
- Plant response rating, Galium ([5]; 31 g ai/ha): 0
- Plant response rating, Galium ([5]; 62 g ai/ha): 0
- Plant response rating, Galium ([5]; 125 g ai/ha): 55
- Plant response rating, Galium ([5]; 250 g ai/ha): 45
- Plant response rating, Blackgrass ([6]; 31 g ai/ha): 40
- Plant response rating, Blackgrass ([6]; 62 g ai/ha): 45
- Plant response rating, Blackgrass ([6]; 125 g ai/ha): 70
- Plant response rating, Blackgrass ([6]; 250 g ai/ha): 70
- Plant response rating, Waterhemp ([7]; 62 g ai/ha): 30
- Plant response rating, Waterhemp ([7]; 125 g ai/ha): 80
- Plant response rating, Waterhemp ([7]; 250 g ai/ha): 85
- Plant response rating, Oilseed Rape ([8]; 31 g ai/ha): 10
- Plant response rating, Oilseed Rape ([8]; 62 g ai/ha): 25
- Plant response rating, Oilseed Rape ([8]; 125 g ai/ha): 30
- Plant response rating, Oilseed Rape ([8]; 250 g ai/ha): 35
- Plant response rating, Velvetleaf ([9]; 62 g ai/ha): 20
- Plant response rating, Velvetleaf ([9]; 125 g ai/ha): 20
- Plant response rating, Velvetleaf ([9]; 250 g ai/ha): 40
- Plant response rating, Lambsquarters ([10]; 31 g ai/ha): 10
- Plant response rating, Lambsquarters ([10]; 62 g ai/ha): 35
- Plant response rating, Lambsquarters ([10]; 125 g ai/ha): 60
- Plant response rating, Lambsquarters ([10]; 250 g ai/ha): 70
- Plant response rating, Crabgrass, Large ([11]; 31 g ai/ha): 90
- Plant response rating, Crabgrass, Large ([11]; 62 g ai/ha): 95
- Plant response rating, Crabgrass, Large ([11]; 125 g ai/ha): 90
- Plant response rating, Crabgrass, Large ([11]; 250 g ai/ha): 95
- Plant response rating, Corn (corn (Zea mays); 31 g ai/ha): 0
- Plant response rating, Corn (corn (Zea mays); 62 g ai/ha): 0
- Plant response rating, Corn (corn (Zea mays); 125 g ai/ha): 60
- Plant response rating, Corn (corn (Zea mays); 250 g ai/ha): 75
- Plant response rating, Foxtail, Giant ([12]; 31 g ai/ha): 80
- Plant response rating, Foxtail, Giant ([12]; 62 g ai/ha): 85
- Plant response rating, Foxtail, Giant ([12]; 125 g ai/ha): 85
- Plant response rating, Foxtail, Giant ([12]; 250 g ai/ha): 90
- Plant response rating, Morningglory ([13]; 31 g ai/ha): 0
- Plant response rating, Morningglory ([13]; 62 g ai/ha): 0
- Plant response rating, Morningglory ([13]; 125 g ai/ha): 15
- Plant response rating, Morningglory ([13]; 250 g ai/ha): 20
- Plant response rating, Barnyardgrass ([14]; 31 g ai/ha): 60
- Plant response rating, Barnyardgrass ([14]; 62 g ai/ha): 80
- Plant response rating, Barnyardgrass ([14]; 125 g ai/ha): 90
- Plant response rating, Barnyardgrass ([14]; 250 g ai/ha): 95
- Plant response rating, Wheat ([15]; 62 g ai/ha): 0
- Plant response rating, Wheat ([15]; 125 g ai/ha): 25
- Plant response rating, Wheat ([15]; 250 g ai/ha): 40
- Plant response rating, Soybean (soybean (Glycine max); 62 g ai/ha): 0
- Plant response rating, Soybean (soybean (Glycine max); 125 g ai/ha): 0
- Plant response rating, Soybean (soybean (Glycine max); 250 g ai/ha): 10
